Experiments:
BACE1 [1] = target: T1, BACE1 (Homo sapiens (Human), UniProt P56817); assay: In vitro enzymatic BACE1 FRET assay; assay type: biochemical; conditions: read-out: BACE1 Enzyme IC50
Target sequence in this assay (P56817 46-501): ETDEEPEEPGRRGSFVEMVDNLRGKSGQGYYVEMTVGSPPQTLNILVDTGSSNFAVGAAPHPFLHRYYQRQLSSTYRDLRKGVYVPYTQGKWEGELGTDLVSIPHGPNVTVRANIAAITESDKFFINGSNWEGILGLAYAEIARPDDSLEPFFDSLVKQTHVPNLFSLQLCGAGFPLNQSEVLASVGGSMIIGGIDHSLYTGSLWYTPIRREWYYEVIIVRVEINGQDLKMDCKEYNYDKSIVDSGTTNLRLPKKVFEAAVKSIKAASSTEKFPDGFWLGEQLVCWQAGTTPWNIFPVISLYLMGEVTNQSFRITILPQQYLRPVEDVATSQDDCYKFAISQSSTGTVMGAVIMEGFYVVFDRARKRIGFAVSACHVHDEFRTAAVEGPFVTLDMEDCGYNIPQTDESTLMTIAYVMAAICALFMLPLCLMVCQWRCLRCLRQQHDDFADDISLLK

human recombinant BACE2 = human recombinant BACE2 (Homo sapiens (Human), UniProt Q9Y5Z0); assay: In vitro enzymatic BACE2 FRET assay; assay type: biochemical; conditions: read-out: BACE2 Enzyme IC50
BACE1 [2] = target: T1, BACE1; assay: In vitro BACE1 cell-based assay (Aβ40 in conditioned medium of cells stably expressing APP, HTRF); conditions: Aβ40 in conditioned media after 24 h incubation
Target sequence in this assay (P56817 46-501, species assumed): as the sequence (P56817 46-501) above

Cathepsin D (CatD) = Cathepsin D (CatD) (Homo sapiens (Human), UniProt P07339); assay: In vitro enzymatic Cathepsin D (CatD) FRET assay; assay type: biochemical; conditions: read-out: Cat D Enzyme IC50
Cathepsin D (CatD), sequence (P07339 65-412, species assumed): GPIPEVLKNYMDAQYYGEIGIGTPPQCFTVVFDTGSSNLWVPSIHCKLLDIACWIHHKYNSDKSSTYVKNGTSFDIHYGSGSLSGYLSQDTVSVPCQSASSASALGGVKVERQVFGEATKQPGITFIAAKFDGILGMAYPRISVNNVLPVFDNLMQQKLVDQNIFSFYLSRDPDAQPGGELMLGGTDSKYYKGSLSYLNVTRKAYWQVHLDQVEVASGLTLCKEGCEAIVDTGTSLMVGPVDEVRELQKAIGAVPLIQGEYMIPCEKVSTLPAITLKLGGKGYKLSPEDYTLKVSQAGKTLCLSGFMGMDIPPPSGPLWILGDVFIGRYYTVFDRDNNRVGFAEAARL

human recombinant BACE2, sequence (Q9Y5Z0 63-518): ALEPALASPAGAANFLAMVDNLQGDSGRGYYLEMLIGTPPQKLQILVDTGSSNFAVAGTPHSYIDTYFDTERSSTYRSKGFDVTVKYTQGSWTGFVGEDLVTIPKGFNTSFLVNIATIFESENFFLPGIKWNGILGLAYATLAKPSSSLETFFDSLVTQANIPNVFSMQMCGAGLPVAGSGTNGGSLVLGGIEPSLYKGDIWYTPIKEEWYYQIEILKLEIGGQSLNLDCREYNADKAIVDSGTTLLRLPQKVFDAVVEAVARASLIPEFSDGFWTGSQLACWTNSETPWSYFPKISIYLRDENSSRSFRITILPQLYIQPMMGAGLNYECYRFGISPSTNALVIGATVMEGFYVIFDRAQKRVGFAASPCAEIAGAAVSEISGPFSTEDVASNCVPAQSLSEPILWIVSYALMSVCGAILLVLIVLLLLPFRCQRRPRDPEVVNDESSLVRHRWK

Row | Compound | IC50 (BACE1 [1]) [nM] | IC50 (human recombinant BACE2) [nM] | IC50 (BACE1 [2]) [nM] | IC50 (Cathepsin D (CatD)) [nM]
1 | COCCOc1cnc(/C(F)=C/c2ccc(F)c([C@@]3(C)N=C(N)[C@@]4(CF)CC[C@@H]3S4(=O)=O)c2)cn1 [Example 130, (1R,4R,5S)-2-amino-4-(2-fluoro-5-((Z)-2-fluoro-2-(5-(2-methoxyethoxy)pyrazin-2-yl)vinyl)phenyl)-1-(fluoromethyl)-4-methyl-8-thia-3-azabicyclo[3.2.1]oct-2-ene 8,8-dioxide] | 33 | 163 | 60 | 173000
2 | CN1C(N)=N[C@](C)(c2cc(/C=C(\F)c3ccc(C(F)(F)F)cn3)ccc2F)CS1(=O)=O [Example 244, (5R)-5-(2-fluoro-5-((Z)-2-fluoro-2-(5-(trifluoromethyl)-2-pyridinyl)ethenyl)phenyl)-2,5-dimethyl-5,6-dihydro-2H-1,2,4-thiadiazin-3-amine 1,1-dioxide] | 6 | 31 | 8 | 206000
3 | Cc1cc(C#N)cnc1/C(F)=C/c1ccc(F)c([C@]2(C)CS(=O)(=O)N(C)C(N)=N2)c1 [Example 245, 6-((Z)-2-(3-((5R)-3-amino-2,5-dimethyl-1,1-dioxido-5,6-dihydro-2H-1,2,4-thiadiazin-5-yl)-4-fluorophenyl)-1-fluoroethenyl)-5-methyl-3-pyridinecarbonitrile] | 5 | 21 | 4 | 137000
4 | C[C@H]1COc2cnc(/C(F)=C/c3ccc(F)c([C@]4(C)CS(=O)(=O)N(C)C(N)=N4)c3)nc2O1 [Example 236, (R)-3-amino-5-(2-fluoro-5-((Z)-2-fluoro-2-((S)-7-methyl-6,7-dihydro-[1,4]dioxino[2,3-d]pyrimidin-2-yl)vinyl)phenyl)-2,5-dimethyl-5,6-dihydro-2H-1,2,4-thiadiazine 1,1-dioxide] | 1120 | 2360 | 410 | 55200
5 | CN1C(N)=N[C@](C)(c2cc(/C=C(\F)c3ccc(C(F)(F)F)cn3)cc(F)c2F)CS1(=O)=O [Example 273, (R,Z)-3-amino-5-(2,3-difluoro-5-(2-fluoro-2-(5-(trifluoromethyl)pyridin-2-yl)vinyl)phenyl)-2,5-dimethyl-5,6-dihydro-2H-1,2,4-thiadiazine 1,1-dioxide] | 7 | 46 | 13 | 76200
6 | CN1C(N)=N[C@](C)(c2cc(/C=C(\F)c3cc4cc(Cl)ccc4cn3)ccc2F)CS1(=O)=O [Example 260, (5R)-5-(5-((Z)-2-(6-chloro-3-isoquinolinyl)-2-fluoroethenyl)-2-fluorophenyl)-2,5-dimethyl-5,6-dihydro-2H-1,2,4-thiadiazin-3-amine 1,1-dioxide] | 552 | 112 | 4180 | 72500
7 | Cc1noc(COc2cnc(/C(F)=C/c3ccc(F)c([C@]4(C)CS(=O)(=O)C(C)(C)C(N)=N4)c3)cn2)n1 [Example 175, (R,Z)-5-amino-3-(2-fluoro-5-(2-fluoro-2-(5-((3-methyl-1,2,4-oxadiazol-5-yl)methoxy)pyrazin-2-yl)vinyl)phenyl)-3,6,6-trimethyl-3,6-dihydro-2H-1,4-thiazine 1,1-dioxide] | 88 | 225 | 53 | 124000
8 | CN1C(N)=N[C@](C)(c2cc(/C=C(\F)c3cc4ccccc4cn3)ccc2F)CS1(=O)=O [Example 259, (5R)-5-(2-fluoro-5-((Z)-2-fluoro-2-(3-isoquinolinyl)ethenyl)phenyl)-2,5-dimethyl-5,6-dihydro-2H-1,2,4-thiadiazin-3-amine 1,1-dioxide] | 272 | 41 | 1120 | 116000
9 | CC1(C)C(N)=N[C@](C)(c2cc(/C=C(\F)c3cc4c(cn3)OCCO4)ccc2F)[C@H](F)S1(=O)=O (single isomer, unassigned) [Example 214] | 225 | 851 | 5940 | 303000
10 | CCC#C[C@H](C)Oc1cnc(/C(F)=C/c2ccc(F)c([C@]3(C)CS(=O)(=O)C(C)(C)C(N)=N3)c2)cn1 (single isomer, unassigned) [Example 217] | 9 | 233 | 288 | 26800
11 | C[C@]1(c2cc(/C=C(\F)c3cnc(OCC(F)F)cn3)ccc2F)N=C(N)[C@@]2(CF)CC[C@@H]1S2(=O)=O [Example 134, (1R,4R,5S)-2-amino-4-(5-((Z)-2-(5-(2,2-difluoroethoxy)pyrazin-2-yl)-2-fluorovinyl)-2-fluorophenyl)-1-(fluoromethyl)-4-methyl-8-thia-3-azabicyclo[3.2.1]oct-2-ene 8,8-dioxide] | 101 | 123 | 318 | 196000
12 | C#C[C@H](C)Oc1cnc(/C(F)=C/c2ccc(F)c([C@]3(CF)CS(=O)(=O)C(C)(C)C(N)=N3)c2)cn1 [Example 195, (S)-5-amino-3-(5-((Z)-2-(5-((S)-but-3-yn-2-yloxy)pyrazin-2-yl)-2-fluorovinyl)-2-fluorophenyl)-3-(fluoromethyl)-6,6-dimethyl-3,6-dihydro-2H-1,4-thiazine 1,1-dioxide] | 11 | 523 | 188 | 64900
13 | C#CCOc1cnc(/C(F)=C/c2ccc(F)c([C@]3(CF)CS(=O)(=O)C(C)(C)C(N)=N3)c2)cn1 [Example 190, (S,Z)-5-amino-3-(2-fluoro-5-(2-fluoro-2-(5-(prop-2-yn-1-yloxy)pyrazin-2-yl)vinyl)phenyl)-3-(fluoromethyl)-6,6-dimethyl-3,6-dihydro-2H-1,4-thiazine 1,1-dioxide] | 6 | 274 | 74 | 104000
14 | CC#CCOc1cnc(/C(F)=C/c2ccc(F)c([C@@]3(C)N=C(N)[C@@]4(CF)CC[C@@H]3S4(=O)=O)c2)cn1 [Example 137, (1R,4R,5S)-2-amino-4-(5-((Z)-2-(5-(but-2-yn-1-yloxy)pyrazin-2-yl)-2-fluorovinyl)-2-fluorophenyl)-1-(fluoromethyl)-4-methyl-8-thia-3-azabicyclo[3.2.1]oct-2-ene 8,8-dioxide] | 1 | 44 | 4 | 65300
15 | CC1(C)C(N)=N[C@](C)(c2cc(/C=C(\F)c3cnc(OCc4ccccc4)cn3)cnc2F)CS1(=O)=O [Example 209, (R,Z)-5-amino-3-(5-(2-(5-(benzyloxy)pyrazin-2-yl)-2-fluorovinyl)-2-fluoropyridin-3-yl)-3,6,6-trimethyl-3,6-dihydro-2H-1,4-thiazine 1,1-dioxide] | 124 | 311 | 2520 | 46500
16 | C[C@]1(c2cc(/C=C(\F)c3cnc(OCC(F)(F)F)cn3)ccc2F)N=C(N)[C@@]2(CF)CC[C@@H]1S2(=O)=O [Example 109, (1R,4R,5S)-2-amino-4-(2-fluoro-5-((Z)-2-fluoro-2-(5-(2,2,2-trifluoroethoxy)pyrazin-2-yl)vinyl)phenyl)-1-(fluoromethyl)-4-methyl-8-thia-3-azabicyclo[3.2.1]oct-2-ene 8,8-dioxide] | 28 | 167 | 227 | 135000
17 | CCCOc1cnc(/C(F)=C/c2ccc(F)c([C@@]3(C)N=C(N)[C@@]4(CF)CC[C@@H]3S4(=O)=O)c2)cn1 [Example 135, (1R,4R,5S)-2-amino-4-(2-fluoro-5-((Z)-2-fluoro-2-(5-propoxypyrazin-2-yl)vinyl)phenyl)-1-(fluoromethyl)-4-methyl-8-thia-3-azabicyclo[3.2.1]oct-2-ene 8,8-dioxide] | 86 | 120 | 866 | > 400000
18 | CN1C(N)=N[C@](C)(c2cc(/C=C(\F)C3CCOCC3)cc(F)c2F)CS1(=O)=O [Example 110, (R,Z)-3-amino-5-(2,3-difluoro-5-(2-fluoro-2-(tetrahydro-2H-pyran-4-yl)vinyl)phenyl)-2,5-dimethyl-5,6-dihydro-2H-1,2,4-thiadiazine 1,1-dioxide] | 709 | 963 | 631 | 194000
19 | CN1C(N)=N[C@](C)(c2cc(/C=C(\F)c3cnc(OCC4COC4)cn3)ccc2F)CS1(=O)=O [Example 179, (R,Z)-3-amino-5-(2-fluoro-5-(2-fluoro-2-(5-(oxetan-3-ylmethoxy)pyrazin-2-yl)vinyl)phenyl)-2,5-dimethyl-5,6-dihydro-2H-1,2,4-thiadiazine 1,1-dioxide] | 176 | 217 | 120 | 43000
20 | CN1C(N)=N[C@](C)(c2cc(/C=C(\F)c3ccc4c(n3)OCCO4)ccc2F)CS1(=O)=O [Example 255, (5R)-5-(5-((Z)-2-(2,3-dihydro[1,4]dioxino[2,3-b]pyridin-6-yl)-2-fluoroethenyl)-2-fluorophenyl)-2,5-dimethyl-5,6-dihydro-2H-1,2,4-thiadiazin-3-amine 1,1-dioxide] | 3840 | 458 | 3020 | 122000
21 | CN1C(N)=N[C@](C)(c2cc(/C=C(\F)c3cnc(Cl)cn3)ccc2F)CS1(=O)=O [Example 111, (R,Z)-3-amino-5-(5-(2-(5-chloropyrazin-2-yl)-2-fluorovinyl)-2-fluorophenyl)-2,5-dimethyl-5,6-dihydro-2H-1,2,4-thiadiazine 1,1-dioxide] | 7 | 5 | 6 | 86300
22 | CN1C(N)=N[C@](C)(c2cc(/C=C(\F)c3nc(C#N)cs3)ccc2F)CS1(=O)=O [Example 267, 2-((Z)-2-(3-((5R)-3-amino-2,5-dimethyl-1,1-dioxido-5,6-dihydro-2H-1,2,4-thiadiazin-5-yl)-4-fluorophenyl)-1-fluoroethenyl)-1,3-thiazole-4-carbonitrile] | 26 | 6 | 38 | 57500

From patent US11021493B2, “1,4-thiazine dioxide and 1,2,4-thiadiazine dioxide derivatives as beta-secretase inhibitors and methods of use” (AMGEN INC., priority 2016, dated 2021)
